# Results from PubChem BioAssay (NCI).
#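 The concentration for 50% growth inhibition is given as GI50. TGI is the concentration that stops growth completely.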
# Legend:
# Test in all cases: DTP human tumour cell line panel, 384-well format
# 786-0 renal = tested on: 786-0 renal
# A498 renal = tested on: A498 renal
# A549 NSCLC = tested on: A549 NSCLC
# ACHN renal = tested on: ACHN renal
# BT-549 breast = tested on: BT-549 breast
# CAKI-1 renal = tested on: CAKI-1 renal
# CCRF-CEM leukemia = tested on: CCRF-CEM leukemia
# COLO 205 colon = tested on: COLO 205 colon
# DU-145 prostate = tested on: DU-145 prostate
# EKVX NSCLC = tested on: EKVX NSCLC
# HCC-2998 colon = tested on: HCC-2998 colon
# HCT-116 colon = tested on: HCT-116 colon
# HCT-15 colon = tested on: HCT-15 colon
# HL-60(TB) leukemia = tested on: HL-60(TB) leukemia
# HOP-62 NSCLC = tested on: HOP-62 NSCLC
# HOP-92 NSCLC = tested on: HOP-92 NSCLC
# HS 578T breast = tested on: HS 578T breast
# HT29 colon = tested on: HT29 colon
# IGROV1 ovarian = tested on: IGROV1 ovarian
# K-562 leukemia = tested on: K-562 leukemia
# KM12 colon = tested on: KM12 colon
# LOX IMVI melanoma = tested on: LOX IMVI melanoma
# M14 melanoma = tested on: M14 melanoma
# MALME-3M melanoma = tested on: MALME-3M melanoma
# MCF7 breast = tested on: MCF7 breast
# MDA-MB-231 breast = tested on: MDA-MB-231 breast
# MDA-MB-435 melanoma = tested on: MDA-MB-435 melanoma
# MDA-MB-468 breast = tested on: MDA-MB-468 breast
# MOLT-4 leukemia = tested on: MOLT-4 leukemia
# NCI-H226 lung = tested on: NCI-H226 lung
# NCI-H23 lung = tested on: NCI-H23 lung
# NCI-H322M lung = tested on: NCI-H322M lung
# NCI-H460 NSCLC = tested on: NCI-H460 NSCLC
# NCI-H522 lung = tested on: NCI-H522 lung
# NCI/ADR-RES ovarian = tested on: NCI/ADR-RES ovarian
# OVCAR-3 ovarian = tested on: OVCAR-3 ovarian
# OVCAR-4 ovarian = tested on: OVCAR-4 ovarian
# OVCAR-5 ovarian = tested on: OVCAR-5 ovarian
# OVCAR-8 ovarian = tested on: OVCAR-8 ovarian
# PC-3 prostate = tested on: PC-3 prostate
# RPMI-8226 leukemia = tested on: RPMI-8226 leukemia
# RXF 393 renal = tested on: RXF 393 renal
# SF-268 CNS = tested on: SF-268 CNS
# SF-295 CNS = tested on: SF-295 CNS
# SF-539 CNS = tested on: SF-539 CNS
# SK-MEL-5 melanoma = tested on: SK-MEL-5 melanoma
# SK-OV-3 ovarian = tested on: SK-OV-3 ovarian
# SN12C renal = tested on: SN12C renal
# SNB-19 CNS = tested on: SNB-19 CNS
# SNB-75 CNS = tested on: SNB-75 CNS
# SR leukemia = tested on: SR leukemia
# SW-620 colon = tested on: SW-620 colon
# TK-10 renal = tested on: TK-10 renal
# U251 glioblastoma = tested on: U251 glioblastoma
# UO-31 renal = tested on: UO-31 renal
structure (smiles),measurement,setting,value
O=C(Nc1ccncc1)C(=O)c1cn(Cc2ccc(Cl)cc2)c2ccccc12,GI50,786-0 renal,< 10 nM
same,TGI,786-0 renal,2010 nM
same,GI50,A498 renal,30.5 nM
same,TGI,A498 renal,> 100000 nM
same,GI50,A549 NSCLC,1090 nM
same,TGI,A549 NSCLC,> 100000 nM
same,GI50,ACHN renal,< 10 nM
same,TGI,ACHN renal,> 100000 nM
same,GI50,BT-549 breast,< 10 nM
same,TGI,BT-549 breast,> 100000 nM
same,GI50,CAKI-1 renal,< 10 nM
same,TGI,CAKI-1 renal,> 100000 nM
same,GI50,CCRF-CEM leukemia,< 10 nM
same,TGI,CCRF-CEM leukemia,16.5 nM
same,GI50,COLO 205 colon,126 nM
same,TGI,COLO 205 colon,353 nM
same,GI50,DU-145 prostate,20.8 nM
same,TGI,DU-145 prostate,> 100000 nM
same,GI50,EKVX NSCLC,< 10 nM
same,TGI,EKVX NSCLC,> 100000 nM
same,GI50,HCC-2998 colon,< 10 nM
same,TGI,HCC-2998 colon,377 nM
same,GI50,HCT-116 colon,< 10 nM
same,TGI,HCT-116 colon,> 100000 nM
same,GI50,HCT-15 colon,< 10 nM
same,TGI,HCT-15 colon,> 100000 nM
same,GI50,HL-60(TB) leukemia,< 10 nM
same,TGI,HL-60(TB) leukemia,< 10 nM
same,GI50,HOP-62 NSCLC,< 10 nM
same,TGI,HOP-62 NSCLC,24100 nM
same,GI50,HOP-92 NSCLC,10.4 nM
same,TGI,HOP-92 NSCLC,34300 nM
same,GI50,HS 578T breast,< 10 nM
same,TGI,HS 578T breast,< 10 nM
same,GI50,HT29 colon,< 10 nM
same,TGI,HT29 colon,> 100000 nM
same,GI50,IGROV1 ovarian,< 10 nM
same,TGI,IGROV1 ovarian,> 100000 nM
same,GI50,K-562 leukemia,< 10 nM
same,TGI,K-562 leukemia,11.9 nM
same,GI50,KM12 colon,< 10 nM
same,TGI,KM12 colon,> 100000 nM
same,GI50,LOX IMVI melanoma,< 10 nM
same,TGI,LOX IMVI melanoma,> 100000 nM
same,GI50,M14 melanoma,< 10 nM
same,TGI,M14 melanoma,36.8 nM
same,GI50,MALME-3M melanoma,< 10 nM
same,TGI,MALME-3M melanoma,23400 nM
same,GI50,MCF7 breast,< 10 nM
same,TGI,MCF7 breast,> 100000 nM
same,GI50,MDA-MB-231 breast,46.8 nM
same,TGI,MDA-MB-231 breast,> 100000 nM
same,GI50,MDA-MB-435 melanoma,< 10 nM
same,TGI,MDA-MB-435 melanoma,< 10 nM
same,GI50,MDA-MB-468 breast,< 10 nM
same,TGI,MDA-MB-468 breast,20.8 nM
same,GI50,MOLT-4 leukemia,< 10 nM
same,TGI,MOLT-4 leukemia,< 10 nM
same,GI50,NCI-H226 lung,< 10 nM
same,TGI,NCI-H226 lung,787 nM
same,GI50,NCI-H23 lung,< 10 nM
same,TGI,NCI-H23 lung,67.4 nM
same,GI50,NCI-H322M lung,44.8 nM
same,TGI,NCI-H322M lung,> 100000 nM
same,GI50,NCI-H460 NSCLC,< 10 nM
same,TGI,NCI-H460 NSCLC,52.7 nM
same,GI50,NCI-H522 lung,< 10 nM
same,TGI,NCI-H522 lung,< 10 nM
same,GI50,NCI/ADR-RES ovarian,< 10 nM
same,TGI,NCI/ADR-RES ovarian,< 10 nM
same,GI50,OVCAR-3 ovarian,< 10 nM
same,TGI,OVCAR-3 ovarian,< 10 nM
same,GI50,OVCAR-4 ovarian,23 nM
same,TGI,OVCAR-4 ovarian,> 100000 nM
same,GI50,OVCAR-5 ovarian,894 nM
same,TGI,OVCAR-5 ovarian,> 100000 nM
same,GI50,OVCAR-8 ovarian,< 10 nM
same,TGI,OVCAR-8 ovarian,14100 nM
same,GI50,PC-3 prostate,< 10 nM
same,TGI,PC-3 prostate,> 100000 nM
same,GI50,RPMI-8226 leukemia,< 10 nM
same,TGI,RPMI-8226 leukemia,< 10 nM
same,GI50,RXF 393 renal,< 10 nM
same,TGI,RXF 393 renal,< 10 nM
same,GI50,SF-268 CNS,< 10 nM
same,TGI,SF-268 CNS,> 100000 nM
same,GI50,SF-295 CNS,< 10 nM
same,TGI,SF-295 CNS,< 10 nM
same,GI50,SF-539 CNS,< 10 nM
same,TGI,SF-539 CNS,24.7 nM
same,GI50,SK-MEL-5 melanoma,< 10 nM
same,TGI,SK-MEL-5 melanoma,11.6 nM
same,GI50,SK-OV-3 ovarian,25 nM
same,TGI,SK-OV-3 ovarian,> 100000 nM
same,GI50,SN12C renal,17.3 nM
same,TGI,SN12C renal,> 100000 nM
same,GI50,SNB-19 CNS,13.8 nM
same,TGI,SNB-19 CNS,> 100000 nM
same,GI50,SNB-75 CNS,< 10 nM
same,TGI,SNB-75 CNS,3230 nM
same,GI50,SR leukemia,< 10 nM
same,TGI,SR leukemia,< 10 nM
same,GI50,SW-620 colon,< 10 nM
same,TGI,SW-620 colon,> 100000 nM
same,GI50,TK-10 renal,< 10 nM
same,TGI,TK-10 renal,72200 nM
same,GI50,U251 glioblastoma,< 10 nM
same,TGI,U251 glioblastoma,1950 nM
same,GI50,UO-31 renal,< 10 nM
same,TGI,UO-31 renal,> 100000 nM
